Experimental data reported in ChEMBL document CHEMBL5465560, “Selectivity Literature for EUbOPEN Chemogenomic Library” (2024).
Values belong to the compound of their own block, whether it stands above or below them.

How the values were obtained:
[1] = target: T1, MAP kinase-activated protein kinase 5 (Homo sapiens) (UniProt Q8IW41); assay: Selectivity interaction (KinaseProfiler screening (Millipore)) EUB0000601a MAPKAPK5; conditions: at 3 µM
T1 sequence (whole entry): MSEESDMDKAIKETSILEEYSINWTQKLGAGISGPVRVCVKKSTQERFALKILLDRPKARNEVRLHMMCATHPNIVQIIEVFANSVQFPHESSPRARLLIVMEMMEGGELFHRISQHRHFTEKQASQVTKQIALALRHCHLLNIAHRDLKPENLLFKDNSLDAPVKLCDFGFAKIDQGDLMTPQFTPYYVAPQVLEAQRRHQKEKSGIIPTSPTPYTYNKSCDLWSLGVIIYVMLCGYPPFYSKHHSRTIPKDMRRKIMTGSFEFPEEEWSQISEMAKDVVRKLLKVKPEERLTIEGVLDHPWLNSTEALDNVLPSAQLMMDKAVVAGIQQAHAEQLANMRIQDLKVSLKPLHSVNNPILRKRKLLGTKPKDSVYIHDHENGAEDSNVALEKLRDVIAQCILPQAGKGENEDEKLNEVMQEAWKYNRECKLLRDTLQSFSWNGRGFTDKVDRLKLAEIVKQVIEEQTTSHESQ

[2] = target: T2, Tyrosine-protein kinase JAK3 (Homo sapiens) (UniProt P52333); conditions: at 10 µM
T2 sequence (whole entry): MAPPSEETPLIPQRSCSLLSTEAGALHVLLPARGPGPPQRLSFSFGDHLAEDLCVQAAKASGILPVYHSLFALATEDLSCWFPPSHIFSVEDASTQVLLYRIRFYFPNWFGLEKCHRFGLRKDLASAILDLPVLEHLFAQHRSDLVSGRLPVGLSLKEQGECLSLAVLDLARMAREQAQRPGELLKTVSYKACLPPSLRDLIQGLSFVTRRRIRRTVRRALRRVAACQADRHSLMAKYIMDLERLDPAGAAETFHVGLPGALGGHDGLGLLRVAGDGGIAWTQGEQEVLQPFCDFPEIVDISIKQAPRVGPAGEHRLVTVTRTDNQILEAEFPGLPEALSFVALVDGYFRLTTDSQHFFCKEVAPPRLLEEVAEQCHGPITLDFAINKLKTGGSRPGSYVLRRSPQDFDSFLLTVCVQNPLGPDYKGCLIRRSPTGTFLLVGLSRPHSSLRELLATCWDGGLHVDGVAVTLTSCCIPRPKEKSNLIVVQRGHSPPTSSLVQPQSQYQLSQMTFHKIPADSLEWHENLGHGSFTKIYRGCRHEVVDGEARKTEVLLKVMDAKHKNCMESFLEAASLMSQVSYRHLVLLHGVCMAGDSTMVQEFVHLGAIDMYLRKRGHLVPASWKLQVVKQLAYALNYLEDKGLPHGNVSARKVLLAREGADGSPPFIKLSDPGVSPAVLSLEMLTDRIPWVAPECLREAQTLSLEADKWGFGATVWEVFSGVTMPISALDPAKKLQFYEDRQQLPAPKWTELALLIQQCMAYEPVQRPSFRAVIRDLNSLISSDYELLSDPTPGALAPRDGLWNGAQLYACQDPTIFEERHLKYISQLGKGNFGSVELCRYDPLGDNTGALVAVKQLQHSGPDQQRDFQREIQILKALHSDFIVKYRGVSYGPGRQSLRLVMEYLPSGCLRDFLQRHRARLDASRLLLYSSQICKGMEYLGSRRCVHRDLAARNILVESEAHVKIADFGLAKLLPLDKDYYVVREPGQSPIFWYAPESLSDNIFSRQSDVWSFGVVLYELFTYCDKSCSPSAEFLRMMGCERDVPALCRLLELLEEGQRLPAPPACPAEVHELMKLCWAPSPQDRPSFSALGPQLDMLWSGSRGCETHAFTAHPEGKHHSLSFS

[3] = test system: T3, Receptor-type tyrosine-protein kinase FLT3 (Homo sapiens), P36888 [D835H]; assay: Selectivity interaction (KinomeScan (DiscoverX)) EUB0001049a FLT3; conditions: at 1 µM
T3 sequence (whole entry): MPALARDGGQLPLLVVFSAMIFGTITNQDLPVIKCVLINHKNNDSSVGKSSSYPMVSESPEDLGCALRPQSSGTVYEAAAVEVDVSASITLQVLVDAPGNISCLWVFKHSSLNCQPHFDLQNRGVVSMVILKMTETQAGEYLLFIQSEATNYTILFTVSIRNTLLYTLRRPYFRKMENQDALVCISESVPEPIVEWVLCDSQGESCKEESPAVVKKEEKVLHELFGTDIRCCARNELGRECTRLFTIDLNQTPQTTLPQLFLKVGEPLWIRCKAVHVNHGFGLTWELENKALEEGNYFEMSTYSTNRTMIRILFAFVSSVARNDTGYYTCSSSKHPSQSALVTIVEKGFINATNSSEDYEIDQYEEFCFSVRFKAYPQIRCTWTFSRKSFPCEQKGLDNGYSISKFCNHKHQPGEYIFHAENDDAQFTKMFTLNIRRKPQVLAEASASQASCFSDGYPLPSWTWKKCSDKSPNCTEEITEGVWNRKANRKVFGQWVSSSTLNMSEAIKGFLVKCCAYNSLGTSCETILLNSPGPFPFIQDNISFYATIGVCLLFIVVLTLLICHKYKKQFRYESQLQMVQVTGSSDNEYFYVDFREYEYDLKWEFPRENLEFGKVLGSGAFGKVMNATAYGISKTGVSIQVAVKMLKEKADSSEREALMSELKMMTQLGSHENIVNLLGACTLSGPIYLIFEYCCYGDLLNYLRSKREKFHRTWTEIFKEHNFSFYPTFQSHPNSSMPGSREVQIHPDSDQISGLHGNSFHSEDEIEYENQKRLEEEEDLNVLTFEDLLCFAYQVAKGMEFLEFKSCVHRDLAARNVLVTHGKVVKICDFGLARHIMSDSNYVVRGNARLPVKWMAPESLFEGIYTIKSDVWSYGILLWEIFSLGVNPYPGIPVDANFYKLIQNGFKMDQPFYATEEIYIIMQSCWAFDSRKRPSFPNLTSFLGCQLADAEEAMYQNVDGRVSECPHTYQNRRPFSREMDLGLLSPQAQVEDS

% of inhibition [1]: 35%
SMILES: CCc1cc(Nc2nccc(-c3c(-c4ccc(OC)c(C(=O)Nc5c(F)cccc5F)c4)nc4ccccn34)n2)c(OC)cc1N1CCC(N2CCN(S(C)(=O)=O)CC2)CC1

SMILES: Cc1cc([C@@H](C)Nc2ccccc2C(=O)O)c2nc(N3CCOCC3)cc(=O)n2c1 [AZD-6482]
% of control [2]: 94%

SMILES: COc1cc(Nc2nc(C)cc(-c3cnn4nc(OC)ccc34)n2)cc(C(F)(F)F)c1
% of control [3]: 93%
